# Reference: US8865756B2, “Inhibitors of HCV NS5A” (Presidio Pharmaceuticals, Inc., priority 2008, dated 2014)
# Tested on: HCV 1b_Huh-Luc/Neo-ET cell line persistently expressing a bicistronic genotype 1b replicon in Huh 7 cells
# Assay: HCV replicon assay (luciferase readout)
# Format: cell-based
# Conditions: Hepatitis C virus, Huh-7, 72 h, read-out: Inhibition of HCV genotype 1b
# Description: Biological activity of the compounds of the invention was determined using an HCV replicon assay. The HCV 1b_Huh-Luc/Neo-ET cell line persistently expressing a bicistronic genotype 1b replicon in Huh 7 cells was obtained from ReBLikon GMBH. This cell line was used to test compound inhibition using luciferase enzyme activity readout as a measurement of compound inhibition of replicon levels.
# On Day 1 (the day after plating), each compound is added in triplicate to the cells. Plates incubated for 72 h prior to running the luciferase assay. Enzyme activity was measured using a Bright-Glo Kit (cat. number E2620) manufactured by Promega Corporation. The following equation was used to generate a percent control value for each compound. % Control=(Average Compound Value/Average Control)*100
# The EC50 value was determined using GraphPad Prism and the following equation: Y=Bottom+(Top−Bottom)/(1+10^((Log IC50−X)*HillSlope))
# EC50 values of compounds are determined several times in the replicon assay.
# Example compounds of the disclosed invention are illustrated in Tables 1-14 attached as appendices. The tables show inhibitory activity of many of the example compounds with respect to HCV 1b. […] The tables further provide mass spectrometry results for the synthesized example compounds.
row,Compound,EC50 [nM]
1,COC(=O)N[C@@H](C(=O)N1CCC[C@H]1c1ncc(-c2ccc(C#Cc3ccc(-c4cnc([C@@H]5CCCN5C(=O)Nc5ccccc5)[nH]4)cc3)cc2)[nH]1)c1ccccc1 [Compound 196],1 to 9.9
2,CC(C)[C@H](NC(=O)N1CCNCC1)C(=O)N1CCC[C@H]1c1ncc(-c2ccc(C#Cc3ccc(-c4cnc([C@@H]5CCCN5C(=O)[C@@H](NC(=O)N5CCNCC5)C(C)C)[nH]4)cc3)cc2)[nH]1 [Compound 967],10 to 999
3,COC(=O)N[C@@H](C(=O)N1CCC[C@H]1c1nc2ccc(C#Cc3ccc4nc([C@@H]5CCCN5C(=O)[C@H](NC(=O)OC)C(C)C)[nH]c4c3)cc2[nH]1)C(C)C [Compound 853],< 1
4,COC(=O)N[C@H](C(=O)N1CCC[C@H]1c1nc2ccc3cc(C#Cc4ccc(-c5cnc([C@@H]6CCCN6C(=O)[C@H](NC(=O)OC)c6ccccc6)[nH]5)cc4)ccc3c2[nH]1)C(C)C [Compound 1093],< 1
5,COC(=O)N[C@@H](C(=O)N1CCC[C@H]1c1ncc(-c2ccc(C#Cc3ccc(-c4cnc([C@@H]5CCCN5C(=O)[C@H](NC(=O)[C@H]5CCCO5)c5ccccc5)[nH]4)cc3)cc2)[nH]1)c1ccccc1 [Compound 201],< 1
6,C[C@H](NC(=O)[C@@H]1CCCN1C(=O)[C@H](NC(=O)C1CC1)c1ccccc1)c1ccc(C#Cc2cnc([C@@H]3CCCN3C(=O)[C@H](NC(=O)C3CC3)c3ccccc3)[nH]2)cc1 [Compound 132],10 to 999
7,COC(=O)N[C@@H](C(=O)N1CCC[C@H]1c1ncc(-c2ccc(C#Cc3ccc(-c4cnc([C@@H]5CCCN5C(=O)[C@@H](c5ccccc5)N(C)C)[nH]4)cc3)cc2)[nH]1)c1ccccc1 [Compound 174],< 1
8,COC(=O)N[C@H](C(=O)N1CCC[C@H]1c1ncc(-c2ccc(C#Cc3ccc(-c4cnc([C@@H]5CCCN5C(=O)[C@@H](c5ccccc5)N(C)C)[nH]4)cc3)cc2)[nH]1)C(C)C [Compound 955],< 1
9,C[C@@H](NC(=O)[C@@H]1CCCN1C(=O)[C@H](NC(=O)C1CC1)c1ccccc1)c1ccc(C#Cc2cnc([C@@H]3CCCN3C(=O)[C@H](NC(=O)C3CC3)c3ccccc3)[nH]2)cc1 [Compound 135],> 1000
10,CNC(=O)N[C@@H](C(=O)N1CCC[C@H]1c1ncc(-c2ccc(C#Cc3ccc(-c4cnc([C@@H]5CCCN5C(=O)[C@H](NC(=O)C5CC5)c5ccccc5)[nH]4)cc3)cc2)[nH]1)c1ccccc1 [Compound 997],< 1
11,COC(=O)N[C@H](C(=O)N1CCC[C@H]1c1ncc(-c2ccc(C#Cc3ccc(-c4cnc([C@@H]5CCCN5C(=O)[C@@H](NC(=O)N5CCN(CCO)CC5)c5ccccc5)[nH]4)cc3)cc2)[nH]1)C(C)C [Compound 990],1 to 9.9
12,COC(=O)N[C@@H](C(=O)N1CCC[C@H]1c1ncc(-c2ccc(C#Cc3ccc(-c4cnc([C@@H]5CCCN5C(=O)[C@H](C)c5ccccc5)[nH]4)cc3)cc2)[nH]1)c1ccccc1 [Compound 256],< 1
13,COC(=O)N[C@@H](C(=O)N[C@@H](C)c1ncc(-c2ccc(C#Cc3ccc(-c4cnc([C@H](C)NC(=O)[C@H](NC(=O)OC)C(C)C)[nH]4)cc3)cc2)[nH]1)C(C)C [Compound 950],< 1
14,COC(=O)N[C@@H](C(=O)N1CCC[C@H]1c1ncc(-c2ccc(C#Cc3ccc(-c4cnc([C@@H]5CCCN5C(=O)C5(c6ccccc6)CC5)[nH]4)cc3)cc2)[nH]1)c1ccccc1 [Compound 257],< 1
15,COC(=O)N[C@H](C(=O)N1CCC[C@H]1c1nc2ccc(C#Cc3ccc(-c4cnc([C@@H]5CCCN5C(=O)[C@H](NC(=O)OC)C(C)C)[nH]4)cc3)cc2[nH]1)C(C)C [Compound 1053],< 1
16,C[C@@H](NC(=O)C1CC1)C(=O)N1CCC[C@H]1c1ncc(-c2ccc(C#Cc3ccc(-c4cnc([C@@H]5CCCN5C(=O)[C@@H](C)NC(=O)C5CC5)[nH]4)cc3)cc2)[nH]1 [Compound 154],1 to 9.9

row,Compound,EC50 [nM]
1,COC(=O)N[C@@H](C(=O)N1CCC[C@H]1c1ncc(C#Cc2ccc(-c3ccc(-c4cnc([C@@H]5CCCN5C(=O)[C@@H](c5ccccc5)N(C)C)[nH]4)cc3)cc2)[nH]1)c1ccccc1 [Compound 755],< 1
2,COC(=O)N[C@H](C(=O)N[C@@H](C)c1ncc(-c2ccc(C#Cc3ccc(-c4cnc([C@@H]5CCCN5C(=O)[C@H](C(C)C)N(C)C)[nH]4)cc3)cc2)[nH]1)C(C)C [Compound 963],1 to 9.9
3,COC(=O)N[C@H](C(=O)N1CCC[C@H]1c1ncc(-c2ccc(C#Cc3ccc4nc([C@@H]5CCCN5C(=O)[C@@H](NC(=O)OC)[C@@H](C)O)[nH]c4c3)cc2)[nH]1)[C@@H](C)O [Compound 863],< 1
4,COC(=O)N[C@H](C(=O)N1CCC[C@H]1c1ncc(-c2ccc(C#Cc3ccc(-c4cnc([C@@H]5CCCN5C(=O)[C@@H](NC(=O)OC)C(C)(C)O)[nH]4)cc3)cc2)[nH]1)C(C)C [Compound 994],< 1
5,O=C(N[C@@H](C(=O)N1CCC[C@H]1c1nc(-c2ccc3cc(C#Cc4cnc([C@@H]5CCCN5C(=O)[C@H](NC(=O)C5CC5)c5ccccc5)[nH]4)ccc3c2)c[nH]1)c1ccccc1)C1CC1 [Compound 804],< 1
6,COC(=O)N[C@H](C(=O)N1CCC[C@H]1c1ncc(-c2ccc(C#Cc3ccc4nc([C@@H]5CCCN5C(=O)[C@@H](NC(=O)OC)C(C)(C)C)[nH]c4c3)cc2)[nH]1)C(C)(C)C [Compound 1041],< 1
7,COC(=O)N[C@@H](C(=O)N1CCC[C@H]1c1ncc(-c2ccc(C#Cc3ccc(-c4cnc([C@@H]5CCCN5C(=O)[C@H](NC(=O)[C@H]5CCCN5C)c5ccccc5)[nH]4)cc3)cc2)[nH]1)c1ccccc1 [Compound 204],< 1
8,COC(=O)N[C@H](C(=O)N1CCC[C@H]1c1ncc(-c2ccc(C#Cc3ccc(-c4cnc([C@@H]5CCCN5C(=O)[C@H](C(C)C)N5CCOC5=O)[nH]4)cc3)cc2)[nH]1)C(C)C [Compound 996],< 1
9,CCN(CC)[C@@H](C(=O)N1CCC[C@H]1c1ncc(-c2ccc(C#Cc3ccc(-c4cnc([C@@H]5CCCN5C(=O)[C@H](NS(C)(=O)=O)c5ccccc5)[nH]4)cc3)cc2)[nH]1)c1ccccc1 [Compound 229],< 1
10,COC(=O)N[C@H](C(=O)N1CCC[C@H]1c1ncc(-c2ccc(C#Cc3ccc(-c4cnc([C@@H]5CCCN5C(=O)[C@H](NC(=O)N(CCO)CCO)c5ccccc5)[nH]4)cc3)cc2)[nH]1)C(C)C [Compound 973],< 1
11,O=C(N[C@@H](C(=O)N1CCC[C@H]1c1ncc(-c2ccc(C#Cc3ccc(-c4cnc([C@@H]5CCCN5C(=O)[C@H](NC(=O)N5CC[C@@H](O)C5)c5ccccc5)[nH]4)cc3)cc2)[nH]1)c1ccccc1)N1CC[C@@H](O)C1 [Compound 252],< 1
12,COC(=O)N[C@H](C(=O)N1CCC[C@H]1c1ncc(-c2ccc(C#Cc3ccc4nc([C@@H]5CCCN5C(=O)[C@H](C(C)C)N(C)C)[nH]c4c3)cc2)[nH]1)C(C)C [Compound 1021],< 1
13,CCOC(=O)N[C@@H](C(=O)N1CCC[C@H]1c1ncc(-c2ccc(C#Cc3ccc(-c4cnc([C@@H]5CCCN5C(=O)[C@H](NC(=O)OCC)c5ccccc5)[nH]4)cc3)cc2)[nH]1)c1ccccc1 [Compound 244],< 1
14,COC(=O)N[C@H](C(=O)N1CCC[C@H]1c1ncc(-c2ccc(C#Cc3ccc(-c4cnc([C@@H]5CCCN5C(=O)[C@H](NC(=O)N5CCC(O)CC5)c5ccccc5)[nH]4)cc3)cc2)[nH]1)C(C)C [Compound 991],1 to 9.9
15,CN(C)C(=O)N[C@@H](C(=O)N1CCC[C@H]1c1ncc(-c2ccc(C#Cc3ccc(-c4cnc([C@@H]5CCCN5C(=O)[C@H](NC(=O)N(C)C)c5ccccc5)[nH]4)cc3)cc2)[nH]1)c1ccccc1 [Compound 161],< 1
